{"source": "ChEMBL document CHEMBL1201862", "about": "“PubChem BioAssay data set” (2004)", "key": {"[1]": {"biological_target": "T1, RNA-binding protein pos-1 (Caenorhabditis elegans, UniProt G5EF15)", "T1 sequence (G5EF15 whole entry)": "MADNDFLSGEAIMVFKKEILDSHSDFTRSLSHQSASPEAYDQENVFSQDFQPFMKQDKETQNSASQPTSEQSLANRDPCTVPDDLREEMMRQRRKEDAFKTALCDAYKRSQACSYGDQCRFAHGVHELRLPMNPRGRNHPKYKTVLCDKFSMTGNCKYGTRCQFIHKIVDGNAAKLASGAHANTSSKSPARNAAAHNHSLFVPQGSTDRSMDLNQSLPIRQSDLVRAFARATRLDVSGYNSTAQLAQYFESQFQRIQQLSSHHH", "assay": "inhibitors of POS-1/mex-3 RNA binding, dose response, biochemical, fluorescence polarization (AID 1964);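 note: purified POS-1 fused to maltose binding protein made in E. coli; potency of compounds blocking POS-1 binding to fluorescent RNA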"}, "[2]": {"biological_target": "T2, Zinc finger protein mex-5 (Caenorhabditis elegans, UniProt Q9XUB2)", "T2 sequence (Q9XUB2 whole entry)": "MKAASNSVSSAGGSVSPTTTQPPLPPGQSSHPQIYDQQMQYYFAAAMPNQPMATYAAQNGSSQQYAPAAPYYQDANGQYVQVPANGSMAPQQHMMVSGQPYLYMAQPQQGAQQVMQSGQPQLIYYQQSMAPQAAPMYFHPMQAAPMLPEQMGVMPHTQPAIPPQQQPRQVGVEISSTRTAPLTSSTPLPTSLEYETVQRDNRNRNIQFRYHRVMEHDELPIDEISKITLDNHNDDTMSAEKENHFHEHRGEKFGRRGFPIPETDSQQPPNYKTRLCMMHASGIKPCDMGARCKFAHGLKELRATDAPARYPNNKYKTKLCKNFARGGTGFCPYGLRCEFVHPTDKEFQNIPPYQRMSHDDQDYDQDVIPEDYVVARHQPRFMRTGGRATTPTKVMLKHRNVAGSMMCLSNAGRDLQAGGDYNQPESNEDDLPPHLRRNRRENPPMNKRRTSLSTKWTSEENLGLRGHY", "assay": "MEX-5/TCR-2 RNA interaction inhibitors, dose response, biochemical, C. elegans, fluorescence polarization (AID 1960)"}, "[3]": {"biological_target": "Alkaline phosphatase, placental type (Homo sapiens, UniProt P05187)", "sequence (P05187 whole entry)": "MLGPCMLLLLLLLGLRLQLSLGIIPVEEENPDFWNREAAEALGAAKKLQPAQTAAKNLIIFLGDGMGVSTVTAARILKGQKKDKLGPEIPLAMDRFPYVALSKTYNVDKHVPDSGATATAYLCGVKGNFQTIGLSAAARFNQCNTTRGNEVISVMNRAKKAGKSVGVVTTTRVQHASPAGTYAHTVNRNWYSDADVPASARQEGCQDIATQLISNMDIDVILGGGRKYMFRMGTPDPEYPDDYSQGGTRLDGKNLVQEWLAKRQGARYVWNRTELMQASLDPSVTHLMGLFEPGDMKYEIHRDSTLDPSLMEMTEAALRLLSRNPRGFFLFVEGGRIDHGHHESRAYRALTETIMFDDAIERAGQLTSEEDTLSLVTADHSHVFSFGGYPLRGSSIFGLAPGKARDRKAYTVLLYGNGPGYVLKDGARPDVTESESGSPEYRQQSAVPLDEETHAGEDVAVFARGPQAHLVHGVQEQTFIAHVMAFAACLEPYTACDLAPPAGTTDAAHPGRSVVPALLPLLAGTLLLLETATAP", "assay": "PLAP enzyme inhibitors, confirmation, biochemical, luminescence (AID 1512)", "type": "functional"}, "Vero [4]": {"test_system": "Vero", "assay": "Vero E6 cell cytotoxicity, SAR follow-up, cytotoxicity control for West Nile virus antiviral project, synthesized analogs (AID 2244)", "type": "functional", "conditions": "Chlorocebus sabaeus"}, "Vero [5]": {"test_system": "Vero", "assay": "West Nile virus CPE inhibition, SAR follow-up, cell-based, synthesized analogs (AID 2238)", "type": "functional", "conditions": "Chlorocebus sabaeus"}, "[6]": {"biological_target": "Tyrosine-protein phosphatase non-receptor type 7 (Homo sapiens, UniProt P35236)", "sequence (P35236 whole entry)": "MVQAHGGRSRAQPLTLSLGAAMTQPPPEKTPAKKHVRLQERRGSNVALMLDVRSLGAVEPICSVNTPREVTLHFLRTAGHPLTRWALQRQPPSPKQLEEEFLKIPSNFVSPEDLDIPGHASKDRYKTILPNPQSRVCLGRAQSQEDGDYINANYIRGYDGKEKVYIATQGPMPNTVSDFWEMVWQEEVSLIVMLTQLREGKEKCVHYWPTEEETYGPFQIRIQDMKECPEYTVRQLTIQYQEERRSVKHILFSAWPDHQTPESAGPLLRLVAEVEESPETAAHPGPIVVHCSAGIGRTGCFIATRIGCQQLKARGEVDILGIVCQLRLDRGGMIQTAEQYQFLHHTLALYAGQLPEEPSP", "assay": "redox-dependent HePTP inhibition, mechanism study, biochemical, fluorescence (AID 2068)", "type": "functional"}, "SUMO-activating enzyme [7]": {"biological_target": "T3, SUMO-activating enzyme (Homo sapiens, UniProt Q9UBT2)", "T3 sequence (Q9UBE0 whole entry)": "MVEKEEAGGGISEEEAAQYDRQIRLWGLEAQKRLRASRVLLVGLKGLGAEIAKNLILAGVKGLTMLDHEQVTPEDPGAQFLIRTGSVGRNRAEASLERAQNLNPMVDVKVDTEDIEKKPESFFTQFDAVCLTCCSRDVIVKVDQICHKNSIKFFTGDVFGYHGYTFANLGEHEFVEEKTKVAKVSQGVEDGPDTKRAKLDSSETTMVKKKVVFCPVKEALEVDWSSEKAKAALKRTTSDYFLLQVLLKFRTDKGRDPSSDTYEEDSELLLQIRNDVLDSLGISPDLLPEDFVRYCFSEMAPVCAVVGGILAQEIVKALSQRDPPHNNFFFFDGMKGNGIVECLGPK", "T3 sequence (Q9UBT2 whole entry)": "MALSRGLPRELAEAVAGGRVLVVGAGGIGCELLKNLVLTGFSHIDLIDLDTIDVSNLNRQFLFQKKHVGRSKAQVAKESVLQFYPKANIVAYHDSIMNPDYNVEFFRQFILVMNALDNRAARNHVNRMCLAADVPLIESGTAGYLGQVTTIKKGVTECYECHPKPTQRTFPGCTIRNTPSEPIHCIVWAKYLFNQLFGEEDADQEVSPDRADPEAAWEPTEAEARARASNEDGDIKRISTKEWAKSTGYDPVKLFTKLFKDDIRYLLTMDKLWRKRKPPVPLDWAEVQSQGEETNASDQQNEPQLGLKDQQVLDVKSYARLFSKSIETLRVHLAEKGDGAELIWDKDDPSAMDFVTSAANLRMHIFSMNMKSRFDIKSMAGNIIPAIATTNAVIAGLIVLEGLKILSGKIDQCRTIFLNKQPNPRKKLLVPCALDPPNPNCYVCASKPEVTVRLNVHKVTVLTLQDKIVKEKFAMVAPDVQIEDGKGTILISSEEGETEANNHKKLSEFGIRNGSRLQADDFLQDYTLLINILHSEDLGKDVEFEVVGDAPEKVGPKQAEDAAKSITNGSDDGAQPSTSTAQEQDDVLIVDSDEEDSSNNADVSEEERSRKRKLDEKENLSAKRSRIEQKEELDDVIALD", "assay": "SUMOylation inhibitor hit validation, confirmation, SUMOylation inhibitor project, biochemical, AlphaScreen (AID 2018)", "type": "functional"}, "[8]": {"assay": "Vero cell cytotoxicity, dose response, cytotoxicity control for Vif-APOBEC3G degradation inhibitor project, Vero cells (AID 1117358)", "type": "functional", "conditions": "Human immunodeficiency virus 1, Vero"}, "Bcl-2-like protein 10": {"biological_target": "T4, Bcl-2-like protein 10 (Homo sapiens, UniProt Q9HD36)", "T4 sequence (Q9HD36 whole entry)": "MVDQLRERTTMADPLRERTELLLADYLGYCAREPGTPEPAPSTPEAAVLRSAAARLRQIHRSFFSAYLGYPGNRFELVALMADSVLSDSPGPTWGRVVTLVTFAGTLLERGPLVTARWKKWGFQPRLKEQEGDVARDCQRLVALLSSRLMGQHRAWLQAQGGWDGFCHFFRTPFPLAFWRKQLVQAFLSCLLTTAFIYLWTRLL", "assay": "displacers of TR3 peptide from Bcl-B, primary screen, selectivity assay for Bfl-1 inhibitor project, biochemical, fluorescence polarization, FITC-TR3 peptide (AID 748);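 note: fluorescence polarization from a fluorescein-labelled TR3 peptide binding purified Bcl-B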"}, "SUMO-activating enzyme [9]": {"biological_target": "T3, SUMO-activating enzyme", "assay": "inhibitors of in vitro SUMOylation cascade, primary screen, biochemical, HTRF, uHTS (AID 2006)", "type": "protein-complex assay"}, "[10]": {"assay": "THP-1 cell cytotoxicity, dose response, cytotoxicity control for Vif-APOBEC3G degradation inhibitor project, THP-1 cells (AID 1117359)", "type": "functional", "conditions": "Human immunodeficiency virus 1, THP-1"}, "[11]": {"assay": "Intein inhibitors as potential Tuberculosis drugs, a cytotoxicity screen. [Related pubchem assays (depositor defined):AID2221, AID2223, AID434968, AID435010, AID449749, AID449750, AID489010]", "type": "functional"}, "Protein RecA": {"biological_target": "T5, Protein RecA (Mycobacterium tuberculosis, UniProt P9WHJ3)", "T5 sequence (P9WHJ3 whole entry)": "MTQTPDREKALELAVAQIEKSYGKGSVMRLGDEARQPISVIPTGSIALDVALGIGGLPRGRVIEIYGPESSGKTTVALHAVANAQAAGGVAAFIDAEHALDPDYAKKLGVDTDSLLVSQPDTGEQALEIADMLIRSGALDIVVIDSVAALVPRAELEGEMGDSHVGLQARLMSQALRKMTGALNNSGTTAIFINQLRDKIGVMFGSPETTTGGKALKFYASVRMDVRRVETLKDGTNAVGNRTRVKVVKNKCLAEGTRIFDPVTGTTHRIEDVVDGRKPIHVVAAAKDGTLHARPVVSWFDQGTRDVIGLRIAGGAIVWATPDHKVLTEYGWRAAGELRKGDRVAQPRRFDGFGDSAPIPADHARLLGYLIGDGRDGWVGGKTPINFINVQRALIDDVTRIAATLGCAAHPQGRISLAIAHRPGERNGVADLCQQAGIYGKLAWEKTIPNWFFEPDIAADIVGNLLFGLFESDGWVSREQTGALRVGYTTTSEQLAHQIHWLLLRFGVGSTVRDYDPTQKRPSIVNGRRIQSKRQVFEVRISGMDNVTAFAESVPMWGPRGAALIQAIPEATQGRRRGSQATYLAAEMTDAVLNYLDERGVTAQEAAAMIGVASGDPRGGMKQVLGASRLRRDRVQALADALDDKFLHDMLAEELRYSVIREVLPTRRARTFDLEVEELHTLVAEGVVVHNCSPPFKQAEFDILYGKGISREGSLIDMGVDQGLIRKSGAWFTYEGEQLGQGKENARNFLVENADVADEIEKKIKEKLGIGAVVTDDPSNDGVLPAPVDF", "assay": "Fluorescence Cell-Free Homogeneous Dose Retest to Identify Inhibitors of RecA-Intein Splicing Activity. [Related pubchem assays (depositor defined):AID2097, AID2223, AID489010, AID492950]", "type": "functional"}, "[12]": {"biological_target": "T6, Replicative DNA helicase DnaB (Mycobacterium tuberculosis, UniProt P9WMR3)", "T6 sequence (P9WMR3 whole entry)": "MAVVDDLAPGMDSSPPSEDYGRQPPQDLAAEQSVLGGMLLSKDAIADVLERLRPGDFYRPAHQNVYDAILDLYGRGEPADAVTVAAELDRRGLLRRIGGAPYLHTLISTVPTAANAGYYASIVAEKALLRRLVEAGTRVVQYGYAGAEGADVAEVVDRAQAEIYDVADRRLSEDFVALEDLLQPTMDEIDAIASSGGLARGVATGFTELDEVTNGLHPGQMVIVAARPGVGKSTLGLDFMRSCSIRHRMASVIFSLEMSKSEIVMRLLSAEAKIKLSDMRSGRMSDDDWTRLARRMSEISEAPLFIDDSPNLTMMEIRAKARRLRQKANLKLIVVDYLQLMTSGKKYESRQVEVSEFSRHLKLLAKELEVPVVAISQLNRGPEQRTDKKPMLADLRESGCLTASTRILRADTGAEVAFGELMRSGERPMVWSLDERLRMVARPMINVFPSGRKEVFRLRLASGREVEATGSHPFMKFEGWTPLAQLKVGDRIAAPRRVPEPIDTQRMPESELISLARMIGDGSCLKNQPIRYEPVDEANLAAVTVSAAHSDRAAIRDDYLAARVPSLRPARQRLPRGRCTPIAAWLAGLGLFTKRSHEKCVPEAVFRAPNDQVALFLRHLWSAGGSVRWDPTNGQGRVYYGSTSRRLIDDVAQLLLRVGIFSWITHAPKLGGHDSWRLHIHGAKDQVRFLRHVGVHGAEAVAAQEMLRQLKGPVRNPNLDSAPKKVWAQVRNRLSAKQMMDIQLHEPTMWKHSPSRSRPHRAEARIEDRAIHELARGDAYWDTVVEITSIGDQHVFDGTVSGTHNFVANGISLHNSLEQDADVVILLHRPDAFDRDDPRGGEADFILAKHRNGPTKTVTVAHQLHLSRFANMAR", "assay": "DnaB intein splicing inhibitors, dose response, biochemical, cell-free fluorescence (AID 449749)", "type": "functional"}}, "note": "The source made the active and inactive calls.", "data": [{"smiles": "COCCNC(=O)CCC(=O)NNc1nc2ccccc2c2nc(C)nn12", "values": [{"measurement": "EC50", "setting": "[1]", "value": "118 µM (active)"}, {"measurement": "EC50", "setting": "[2]", "value": "1.21 µM (active)"}, {"measurement": "IC50", "setting": "[3]", "value": "> 100 µM (inactive)"}]}, {"smiles": "COc1ccc(-c2csc(N(CCCN(C)C)C(=O)c3ccccc3C)n2)cc1", "values": [{"measurement": "CC50", "setting": "Vero [4]", "value": "63.2 µM (active)"}, {"measurement": "IC50", "setting": "Vero [5]", "value": "76.6 µM (active)"}]}, {"smiles": "O=C(Nc1ccccc1)c1ccc2nc(-c3ccco3)c(-c3ccco3)nc2c1", "values": [{"measurement": "IC50", "setting": "[6]", "value": "2.51 µM (active)"}, {"measurement": "IC50", "setting": "SUMO-activating enzyme [7]", "value": "1.54 µM (active)"}, {"measurement": "CC50", "setting": "[8]", "value": "> 40 µM (active)"}, {"measurement": "IC50", "setting": "Bcl-2-like protein 10", "value": "> 100 µM (inactive)"}, {"measurement": "IC50", "setting": "SUMO-activating enzyme [9]", "value": "20.7 µM (active)"}, {"measurement": "CC50", "setting": "[10]", "value": "> 40 µM (active)"}]}, {"smiles": "O=C(CCl)N1c2ccccc2OCC1c1ccccc1", "note": "(centres undefined)", "values": [{"measurement": "CC50", "setting": "[11]", "value": "6.48 µM (active)"}, {"measurement": "EC50", "setting": "Protein RecA", "value": "606 nM (active)"}, {"measurement": "AC50", "setting": "[12]", "value": "2.58 µM (active)"}]}]}
